Reference: patent publication US20110059043A1, “CHEMICAL COMPOUNDS” (priority 2009, published 2011)

Legend:
[1] = target: T1, Recombinant HCV polymerase (BK strain) (Hepatitis C virus genotype 1b, UniProt P26663); experiment: HCV polymerase enzyme assay (radiometric [33P]-UTP incorporation); type: biochemical, HCV 1b
T1 construct: Recombinant HCV polymerase (BK strain) was expressed and purified from E. coli with a 21 amino acid C-terminal deletion; His6; made in house; host or cells: E. coli
Description: Compounds were tested for inhibition of HCV polymerase using a radiometric [^33P]-UTP incorporation assay and a biotinylated U13:PolyA primer:template RNA substrate.
Recombinant HCV polymerase (BK strain) was expressed and purified from E. coli with a 21 amino acid C-terminal deletion and a His6-tag. The general assay buffer consisted of 20 mM Tris (pH 7.5), 25 mM KCl, 5 mM MgCl2, 3 mM DTT, 0.5 mg/ml BSA, 0.01% Tween20. The standard reaction, in 96 well plates, contained 10 μl of diluted compound, 50 μl of substrate and 40 μl of enzyme. Compounds, supplied as 10 mM stocks in DMSO, were diluted initially in neat DMSO, and subsequently buffer was added to give a DMSO concentration of 30%; 10 μl of this was added to the assay plate to give a final concentration in the 100 μl assay of 3% DMSO. The biotinylated U13:PolyA RNA substrate was pre-annealed with 40 μM 5′-biotinylated U13 (Dharmacon) and 213 μg/ml PolyA (Amersham Biosciences) in water incubated at 70° C. for 5 minutes before being cooled on ice. Substrate (50 μl) was added in buffer to give a final concentration in the 100 μl assay of 125 nM biotinylated U13:0.63 μg/ml PolyA and 200 nM UTP with 0.4 μCi [^33P]-UTP per well (Perkin Elmer). The reaction was initiated by the addition of 40 μl of enzyme in buffer to give 100 nM final concentration. The reaction was incubated at 25° C. for 100 minutes and then stopped by addition of 100 μl of 100 mM EDTA. The samples were then transferred to 96 well Streptavidin-coated FlashPlates (Perkin Elmer) and incubated at room temperature for ˜1 hour to allow binding to occur. The plates were then washed three times with phosphate-buffered saline containing 0.05% Tween20 in an automated plate washer to remove unincorporated [^33P]-UTP, and then counted in a
Each plate included a set of positive controls (no compound, maximum signal) and negative controls (no enzyme, minimum signal) and in each run at least one reference is compound was included to validate the assay. The IC50, concentration required to inhibit the enzyme activity by 50%, was calculated using an 8-point IC50 curve and fitted using the program XLfit (IDBS).

[2] = tested on: HCV replicon cells Huh 9B; experiment: HCV replicon assay (luciferase); type: cell-based; settings: Hepatitis C virus, reduction of replicon level by 50% vs untreated cell control, 72 h
Description: (§1) HCV replicon cells Huh 9B (ReBlikon), containing the firefly luciferase—ubiquitin—neomycin phosphotransferase fusion protein and EMCV-IRES driven HCV polyprotein with cell culture adaptive mutations.
(§2) Cells were cultured at 37° C. in a 5% CO2 environment and split twice a week on seeding at 2×10^6 cells/flask on day 1 and 1×10^6 3 days later. G418 at 0.5 mg/ml was added to the culture medium but not the assay medium. The culture medium consisted of DMEM with […] glucose and glutamax (Gibco 61965-026) supplemented with 1×non-essential amino acids (Invitrogen 11140-035), penicillin (100 IU/ml)/streptomycin (100 μg/ml) (Invitrogen 15140-122), FCS (10%, 50 ml) and […] (Invitrogen 10131-027) & 10% Australian foetal calf serum (Invitrogen 10099-141).
(§3) A flask of cells was trypsinised and a cell count carried out. Cells were diluted to 100,000 cells/ml and 100 μl of this used to seed one opaque white 96-well plate (for the replicon assay) and one flat-bottomed clear plate (for the tox assay) for every five compounds to be tested for IC50. Wells G12 and H12 were left empty in the clear plate as the blank. Plates were then incubated at 37° C. in a 5% CO2 environment for 24 h.
(§4) On the following day compound dilutions are made up in medium at twice their desired final concentration in a clear round bottomed plate. All dilutions have a final DMSO concentration of 1%.
(§5) Once the dilution plate had been made up, controls and compounds were transferred to the assay plates (containing the cells) at 100 μl/well in duplicate wells. Exception: no compound was added to wells A1 and A2 of either plate and 100 μl of 1% DMSO was added to these instead. Plates were then incubated at 37° C. with 5% CO2 for 72 h.
At the end of the incubation time, the cells in the white plate were harvested by washing in PBS (100 μL per well) and gently tapping dry before addition of […] of lysis buffer (25 mM tris-phosphate, 8 mM MgCl2, 1 mM DTT, 1% Triton X-100, 15% glycerol. pH to 7.8 using KH2PO4 prior to triton and glycerol addition. Substrate was prepared: 23.5 mM beetle luciferin (Promega E1603), 26 mM ATP (Sigma O-2060) in […] Tris buffer pH 7.8 aliquoted and stored at −80° C. was thawed and diluted 1:50 in luciferase assay buffer (20 mM Tricine (Sigma T-0377), 1.07 mM magnesium carbonate hydroxide (Sigma M-5671), 0.1 mM EDTA (Sigma E-5134), 2.67 mM MgSO4(BDH 101514Y), 33.3 mM dithiothreitol (Sigma 150460) pH 7.8).
The M injector of the microplate luminometer (Lmax, Molecular Devices) was primed with 5×300 μl injections of the diluted substrate. After 5-60 min incubation in lysis buffer at room temperature, a plate was inserted into the luminometer and 100 μl luciferase assay reagent was added by the injector on the luminometer. The signal was measured using a 1 second delay followed by a 4 second measurement programme. The IC50, the concentration of the drug required for reducing the replicon level by 50% in relation to the untreated cell control value, can be calculated from the plot of the percentage reduction of the luciferase activity vs. drug concentration.

[3] = tested on: HCV replicon cells Huh 9B; type: cell-based; settings: concentration reducing total cell area by 50% relative to DMSO controls; 72 h
Description: as §1, §2, §3, §4, §5
The clear plate was stained with 100 μl 0.5% methylene blue in 50% ethanol at room temperature for lh, followed by solvation of the absorbed methylene blue in 100 μl per well of 1% lauroylsarcosine. Absorbance of the plate was measured on a microplate spectrophotometer (Molecular Devices) and the absorbance for each concentration of compound expressed as a proportion of the relative DMSO control. The TD50, the concentration of drug required to reduce the total cell area by 50% relative to the DMSO controls, can be calculated by plotting the absorbance at 620 nm minus background against drug concentration.

T1 sequence (P26663 2420-2989): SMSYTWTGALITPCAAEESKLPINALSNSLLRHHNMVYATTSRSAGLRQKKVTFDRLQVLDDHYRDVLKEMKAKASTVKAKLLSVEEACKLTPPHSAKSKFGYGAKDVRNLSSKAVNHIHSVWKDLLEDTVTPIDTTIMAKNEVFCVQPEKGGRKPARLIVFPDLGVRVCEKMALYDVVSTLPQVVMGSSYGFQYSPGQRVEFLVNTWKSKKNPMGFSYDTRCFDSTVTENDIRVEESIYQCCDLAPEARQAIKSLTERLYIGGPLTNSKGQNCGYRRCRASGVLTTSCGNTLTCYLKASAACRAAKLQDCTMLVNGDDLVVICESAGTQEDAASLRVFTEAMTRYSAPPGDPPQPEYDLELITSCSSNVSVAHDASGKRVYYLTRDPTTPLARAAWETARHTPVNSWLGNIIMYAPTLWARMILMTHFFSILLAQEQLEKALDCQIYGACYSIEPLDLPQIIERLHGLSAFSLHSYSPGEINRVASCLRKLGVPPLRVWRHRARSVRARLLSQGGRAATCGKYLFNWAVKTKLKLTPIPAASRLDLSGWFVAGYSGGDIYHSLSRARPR

CCOc1cc(Cl)cc(Cl)c1C1=NC(NC(=O)c2cc(F)cnc2OCCOC)C(=O)Nc2ccccc21 (stereo not drawn) [Example 57, N-(5-(2,4-Dichloro-6-ethoxyphenyl)-2-oxo-2,3-dihydro-1H-benzo[e][1,4]diazepin-3-yl)-5-fluoro-2-(2-methoxyethoxy)nicotinamide]
IC50 [1]: 0.072 µM | IC50 [2]: 0.0203 µM | Replicon Assay Value TD50 [3]: 22.698 µM

COCCOc1ncc(Br)cc1C(=O)NC1N=C(c2c(Cl)cc(Cl)cc2Cl)c2ccccc2NC1=O (stereo not drawn) [Example 33, 5-Bromo-2-(2-methoxyethoxy)-N-(2-oxo-5-(2,4,6-trichlorophenyl)-2,3-dihydro-1H-benzo[e][1,4]diazepin-3-yl)nicotinamide]
IC50 [1]: 0.265 µM | IC50 [2]: 0.487 µM | Replicon Assay Value TD50 [3]: >25 µM

COCCOc1ncc(F)cc1C(=O)N[C@@H]1N=C(c2c(Cl)cc(Cl)cc2Cl)c2ccccc2NC1=O [Example 64, (R)-5-Fluoro-2-(2-methoxyethoxy)-N-(2-oxo-5-(2,4,6-trichlorophenyl)-2,3-dihydro-1H-benzo[e][1,4]diazepin-3-yl)nicotinamide]
IC50 [1]: 2.07 µM | IC50 [2]: 0.241 µM | Replicon Assay Value TD50 [3]: 23.452 µM

COCCOc1ccc(C(C)=O)cc1C(=O)NC1N=C(c2c(Cl)cc(Cl)cc2Cl)c2ccccc2NC1=O (stereo not drawn) [Example 18, 5-Acetyl-2-(2-methoxyethoxy)-N-(2-oxo-5-(2,4,6-trichlorophenyl)-2,3-dihydro-1H-benzo[e][1,4]diazepin-3-yl)benzamide]
IC50 [1]: 0.385 µM | IC50 [2]: 0.876 µM | Replicon Assay Value TD50 [3]: 15.802 µM

COCCCOc1ccc(Cl)cc1C(=O)NC1N=C(c2c(Cl)cc(Cl)cc2Cl)c2ccccc2NC1=O (stereo not drawn) [Example 1, 5-chloro-2-(3-methoxypropoxy)-N-(2-oxo-5-(2,4,6-trichlorophenyl)-2,3-dihydro-1H-benzo[e][1,4]diazepin-3-yl)benzamide]
IC50 [1]: 0.354 µM | IC50 [2]: 0.21 µM | Replicon Assay Value TD50 [3]: >25 µM

CCOCCOc1ccc(Cl)cc1C(=O)NC1N=C(c2c(Cl)cc(Cl)cc2Cl)c2ccccc2NC1=O (stereo not drawn) [Example 3, 5-Chloro-2-(2-ethoxyethoxy)-N-(2-oxo-5-(2,4,6-trichlorophenyl)-2,3-dihydro-1H-benzo[e][1,4]diazepin-3-yl)benzamide]
IC50 [1]: 0.111 µM | IC50 [2]: 0.0829 µM | Replicon Assay Value TD50 [3]: 16.177 µM

COCCOc1ccc(F)cc1C(=O)N[C@H]1N=C(c2c(Cl)cc(Cl)cc2Cl)c2ccccc2NC1=O [Example 61, (S)-5-Fluoro-2-(2-methoxyethoxy)-N-(2-oxo-5-(2,4,6-trichlorophenyl)-2,3-dihydro-1H-benzo[e][1,4]diazepin-3-yl)benzamide]
IC50 [1]: 0.0444 µM | IC50 [2]: 0.0167 µM | Replicon Assay Value TD50 [3]: 17.347 µM

CCOCCOc1ncc(F)cc1C(=O)NC1N=C(c2c(Cl)cc(Cl)cc2OCC)c2ccccc2NC1=O (stereo not drawn) [Example 58, N-(5-(2,4-Dichloro-6-ethoxyphenyl)-2-oxo-2,3-dihydro-1H-benzo[e][1,4]diazepin-3-yl)-2-(2-ethoxyethoxy)-5-fluoronicotinamide]
IC50 [1]: 0.069 µM | IC50 [2]: 0.0099 µM | Replicon Assay Value TD50 [3]: 11.875 µM

COCCN(C)c1ncc(F)cc1C(=O)N[C@H]1N=C(c2c(Cl)cc(Cl)cc2Cl)c2ccccc2NC1=O [Example 67, (S)-5-Fluoro-2-((2-methoxyethyl)(methyl)amino)-N-(2-oxo-5-(2,4,6-trichlorophenyl)-2,3-dihydro-1H-benzo[e][1,4]diazepin-3-yl)nicotinamide]
IC50 [1]: 0.0363 µM | IC50 [2]: 0.0112 µM | Replicon Assay Value TD50 [3]: 13.07 µM

COCCOc1ccc(F)cc1C(=O)NC1N=C(c2c(Cl)cccc2Cl)c2ccccc2NC1=O (stereo not drawn) [Example 48, N-(5-(2,6-Dichlorophenyl)-2-oxo-2,3-dihydro-1H-benzo[e][1,4]diazepin-3-yl)-5-fluoro-2-(2-methoxyethoxy)benzamide]
IC50 [1]: 0.155 µM | IC50 [2]: 0.703 µM | Replicon Assay Value TD50 [3]: >25 µM

COCCOc1ccc(F)cc1C(=O)NC1N=C(c2c(Cl)cc(Cl)cc2OC)c2ccccc2NC1=O (stereo not drawn) [Example 53, N-(5-(2,4-Dichloro-6-methoxyphenyl)-2-oxo-2,3-dihydro-1H-benzo[e][1,4]diazepin-3-yl)-5-fluoro-2-(2-methoxyethoxy)benzamide]
IC50 [1]: 0.154 µM | IC50 [2]: 0.0595 µM | Replicon Assay Value TD50 [3]: 24.827 µM

CS(=O)(=O)NCCCOc1ccc(Cl)cc1C(=O)NC1N=C(c2c(Cl)cc(Cl)cc2Cl)c2ccccc2NC1=O (stereo not drawn) [Example 27, 5-Chloro-2-(3-(methylsulfonamido)propoxy)-N-(2-oxo-5-(2,4,6-trichlorophenyl)-2,3-dihydro-1H-benzo[e][1,4]diazepin-3-yl)benzamide]
IC50 [1]: 0.824 µM | IC50 [2]: 1.91 µM | Replicon Assay Value TD50 [3]: 13.62 µM

COCCNc1ncc(F)cc1C(=O)NC1N=C(c2c(Cl)cc(Cl)cc2Cl)c2ccccc2NC1=O (stereo not drawn) [Example 42, 5-Fluoro-2-(2-methoxyethylamino)-N-(2-oxo-5-(2,4,6-trichlorophenyl)-2,3-dihydro-1H-benzo[e][1,4]diazepin-3-yl)nicotinamide]
IC50 [1]: 0.969 µM | IC50 [2]: 2.64 µM | Replicon Assay Value TD50 [3]: 17.784 µM

CS(=O)(=O)CCOc1ccc(Cl)cc1C(=O)NC1N=C(c2c(Cl)cc(Cl)cc2Cl)c2ccccc2NC1=O (stereo not drawn) [Example 29, 5-Chloro-2-(2-(methylsulfonyl)ethoxy)-N-(2-oxo-5-(2,4,6-trichlorophenyl)-2,3-dihydro-1H-benzo[e][1,4]diazepin-3-yl)benzamide]
IC50 [1]: 0.747 µM | IC50 [2]: 2.77 µM | Replicon Assay Value TD50 [3]: 15.249 µM
